Measured values published in BindingDB's records for doi:10.3109/14756360903179385 (University of Peshawar, 2010).

molecular target: Urease (Canavalia ensiformis, UniProt P07374); assay: Urease Inhibition Assay; settings: pH 6.8; 30 °C
Experimental: Reaction mixtures comprising 25 μL of enzyme (jack bean urease) solution and 55 μL of buffer containing 100 mM urea were incubated with 5 μL of test compound (0.5 mM) at 30°C for 15 min in 96-well plates. Urease activity was determined by measuring the ammonia production using the indophenol method, as described by Weatherburn11. Briefly, 45 μL of each phenol reagent (1% (w/v) phenol and 0.005% (w/v) sodium nitroprussside) and 70 μL of alkali reagent (0.5% (w/v) NaOH and 0.1% active chloride, NaOCl) were added to each well. The increasing absorbanceat 630 nm was measured after 50 min, using a microplate reader (Molecular Devices, Sunnyvale, CA, USA). All reactions were performed in triplicate in a final volume of 200 μL. The results (change in absorbance per min) were processed using SoftMax Pro software (Molecular Devices). The entire assay was performed at pH 6.8.

Sequence of Urease (P07374 whole entry): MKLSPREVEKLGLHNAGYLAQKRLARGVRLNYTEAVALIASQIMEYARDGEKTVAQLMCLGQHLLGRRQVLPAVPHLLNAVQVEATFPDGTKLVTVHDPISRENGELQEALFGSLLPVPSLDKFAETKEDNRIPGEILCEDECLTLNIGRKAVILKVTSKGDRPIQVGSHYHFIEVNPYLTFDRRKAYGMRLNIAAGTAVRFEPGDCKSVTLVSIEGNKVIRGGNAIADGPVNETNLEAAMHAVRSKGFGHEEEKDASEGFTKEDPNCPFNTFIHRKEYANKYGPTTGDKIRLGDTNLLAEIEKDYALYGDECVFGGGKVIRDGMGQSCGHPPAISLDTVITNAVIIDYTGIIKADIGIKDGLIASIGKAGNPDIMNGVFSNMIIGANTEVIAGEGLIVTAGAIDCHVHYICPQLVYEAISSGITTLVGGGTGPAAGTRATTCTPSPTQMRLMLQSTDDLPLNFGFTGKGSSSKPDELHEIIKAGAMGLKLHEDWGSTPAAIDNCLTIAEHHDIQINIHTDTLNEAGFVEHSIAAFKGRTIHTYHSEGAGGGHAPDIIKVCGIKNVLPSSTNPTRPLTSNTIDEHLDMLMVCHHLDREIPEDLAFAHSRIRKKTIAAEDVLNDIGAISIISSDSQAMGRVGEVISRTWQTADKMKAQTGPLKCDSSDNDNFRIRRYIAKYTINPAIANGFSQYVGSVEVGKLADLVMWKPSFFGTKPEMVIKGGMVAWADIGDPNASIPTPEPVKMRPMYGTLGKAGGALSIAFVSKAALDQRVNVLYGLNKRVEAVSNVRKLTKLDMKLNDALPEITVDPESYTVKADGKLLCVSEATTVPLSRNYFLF

| SMILES | IC50 |
| --- | --- |
| O=c1c2cc(O)ccc2oc2cc(O)cc(O)c12 [1,3,7-trihydroxy-9H-xanthen-9-one] | 138 µM |
| CCCCCCCCCCCCCCCCCCCCCCCCOC(=O)C=Cc1ccc(O)c(O)c1 [Tetracosyl 3-(3,4-dihydroxyphenyl) acrylate (2)] | 21 µM |
| O=c1c2cccc(O)c2oc2c(O)c(O)ccc12 [US9114126, MB5] | 37.9 µM |
